# From patent US12162840B2, “Herbicidal compositions” (SYNGENTA PARTICIPATIONS AG, priority 2018, dated 2024)
# Tests used:
# Type in all cases: in vivo
# Lolium perenne (LOLPE) = experiment: B1 Post-emergence efficacy Test 1; details: post-emergence application, 1000 g/ha, evaluated after 13 days
# In short: (§1)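 Eight days after sowing, potted plants in a glasshouse at 24/16 °C day/night were sprayed at 1000 g/ha. Thirteen days on, percentage plant damage was recorded and converted to a score from 1 (0-19%) to 5 (80-100%).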
# Solanum nigrum (SOLNI) = experiment: B1 Post-emergence efficacy Test 1; details: post-emergence application, 1000 g/ha, evaluated after 13 days
# In short: as §1
# Setaria faberi (SETFA) = experiment: B1 Post-emergence efficacy Test 1; details: post-emergence application, 1000 g/ha, evaluated after 13 days
# In short: as §1
# [1] = tested on: Amaranthus retoflexus (AMARE); experiment: B1 Post-emergence efficacy Test 1; details: post-emergence application, 1000 g/ha, evaluated after 13 days
# In short: as §1
# [2] = tested on: Echinochloa crus-galli (ECHCG); experiment: B1 Post-emergence efficacy Test 1; details: post-emergence application, 1000 g/ha, evaluated after 13 days
# In short: as §1
# [3] = tested on: Ipomoea hederacea (IPOHE); experiment: B1 Post-emergence efficacy Test 1; details: post-emergence application, 1000 g/ha, evaluated after 13 days
# In short: as §1
# [4] = tested on: warm season plant species; experiment: B2 Post-emergence efficacy Test 2, warm season plant species; details: 15 days after application, 0-100 scale, 0=no damage, 100=total kill; for Herbicidal activity, ABUTH: Abutilon theophrasti; for Herbicidal activity, AMARE: Amaranthus retroflexus; for Herbicidal activity, BIDPI: Bidens pilosa; for Herbicidal activity, BRAPL: Brachiaria plantaginea; for Herbicidal activity, DIGSA: Digitaria sanguinalis; for Herbicidal activity, ECHCG: Echinochloa crus galli; for Herbicidal activity, ELEIN: Eleisine indica; for Herbicidal activity, EPHHL: Euphorbia hetrophylla; for Herbicidal activity, GLXMA: Glycine max; for Herbicidal activity, IPOHE: Ipomoea hederacea; for Herbicidal activity, ORYSA: Orysa sativa; for Herbicidal activity, PANMI: Panicum miliaceum; for Herbicidal activity, SETFA: Setaria faberi; for Herbicidal activity, SIDSP: Sida spinosa; for Herbicidal activity, SORVU: Sorghum bicolour; for Herbicidal activity, XANST: Xanthium strumarium; for Herbicidal activity, ZEAMX: Zea mays
# Protocol: Seeds of a variety of test species (see Table B1) were sown in standard soil in pots. After cultivation for 12 days (post-emergence) under controlled conditions in a glasshouse (at 24/18° C. or 20/16° C., at day/night; 16 hours light; 65% humidity), the plants were sprayed with an aqueous spray solution derived from the formulation of the technical active ingredient dissolved in IF50 (see Table B2 for composition) and adjuvant (Genapol XO80) was added to the spray solution at a rate of 0.2% v/v. [table] [table] After application, the test plants were grown in a glasshouse under controlled conditions (as above) and watered twice daily. Herbicidal activity was evaluated 15 days after application on a 0-100 scale. The results, where 0=no damage to test plant and 100=total kill of test plant are shown below in Tables 6 to 9.
compound,measurement,setting,value
Cc1nn(C)c(=O)c(-c2c(F)ccc(Cl)c2CCc2ccccc2C(F)(F)F)c1O [Compound 1.066],"percentage damage caused to the plant, five point scale, LOLPE",Lolium perenne (LOLPE),4 (4=60-79%)
same,"percentage damage caused to the plant, five point scale, SOLNI",Solanum nigrum (SOLNI),5 (5=80-100%)
same,"percentage damage caused to the plant, five point scale, SETFA",Setaria faberi (SETFA),5 (5=80-100%)
same,"percentage damage caused to the plant, five point scale, AMARE",[1],5 (5=80-100%)
same,"percentage damage caused to the plant, five point scale, ECHCG",[2],5 (5=80-100%)
same,"percentage damage caused to the plant, five point scale, IPOHE",[3],5 (5=80-100%)
same,"Herbicidal activity, ABUTH",[4]; 15 g/Ha,20
same,"Herbicidal activity, ABUTH",[4]; 30 g/Ha,50
same,"Herbicidal activity, ABUTH",[4]; 60 g/Ha,50
same,"Herbicidal activity, ABUTH",[4]; 125 g/Ha,90
same,"Herbicidal activity, ABUTH",[4]; 250 g/Ha,90
same,"Herbicidal activity, ABUTH",[4]; 500 g/Ha,100
same,"Herbicidal activity, AMARE",[4]; 15 g/Ha,90
same,"Herbicidal activity, AMARE",[4]; 30 g/Ha,90
same,"Herbicidal activity, AMARE",[4]; 60 g/Ha,90
same,"Herbicidal activity, AMARE",[4]; 125 g/Ha,100
same,"Herbicidal activity, AMARE",[4]; 250 g/Ha,100
same,"Herbicidal activity, AMARE",[4]; 500 g/Ha,100
same,"Herbicidal activity, BIDPI",[4]; 15 g/Ha,50
same,"Herbicidal activity, BIDPI",[4]; 30 g/Ha,60
same,"Herbicidal activity, BIDPI",[4]; 60 g/Ha,70
same,"Herbicidal activity, BIDPI",[4]; 125 g/Ha,80
same,"Herbicidal activity, BIDPI",[4]; 250 g/Ha,90
same,"Herbicidal activity, BIDPI",[4]; 500 g/Ha,90
same,"Herbicidal activity, BRAPL",[4]; 15 g/Ha,0
same,"Herbicidal activity, BRAPL",[4]; 30 g/Ha,60
same,"Herbicidal activity, BRAPL",[4]; 125 g/Ha,80
same,"Herbicidal activity, BRAPL",[4]; 250 g/Ha,70
same,"Herbicidal activity, BRAPL",[4]; 500 g/Ha,100
same,"Herbicidal activity, DIGSA",[4]; 15 g/Ha,0
same,"Herbicidal activity, DIGSA",[4]; 30 g/Ha,20
same,"Herbicidal activity, DIGSA",[4]; 60 g/Ha,20
same,"Herbicidal activity, DIGSA",[4]; 125 g/Ha,40
same,"Herbicidal activity, DIGSA",[4]; 250 g/Ha,70
same,"Herbicidal activity, DIGSA",[4]; 500 g/Ha,70
same,"Herbicidal activity, ECHCG",[4]; 15 g/Ha,20
same,"Herbicidal activity, ECHCG",[4]; 30 g/Ha,80
same,"Herbicidal activity, ECHCG",[4]; 60 g/Ha,90
same,"Herbicidal activity, ECHCG",[4]; 125 g/Ha,90
same,"Herbicidal activity, ECHCG",[4]; 250 g/Ha,90
same,"Herbicidal activity, ECHCG",[4]; 500 g/Ha,90
same,"Herbicidal activity, ELEIN",[4]; 15 g/Ha,0
same,"Herbicidal activity, ELEIN",[4]; 30 g/Ha,20
same,"Herbicidal activity, ELEIN",[4]; 60 g/Ha,70
same,"Herbicidal activity, ELEIN",[4]; 125 g/Ha,70
same,"Herbicidal activity, ELEIN",[4]; 250 g/Ha,70
same,"Herbicidal activity, ELEIN",[4]; 500 g/Ha,80
same,"Herbicidal activity, EPHHL",[4]; 15 g/Ha,60
same,"Herbicidal activity, EPHHL",[4]; 30 g/Ha,70
same,"Herbicidal activity, EPHHL",[4]; 60 g/Ha,80
same,"Herbicidal activity, EPHHL",[4]; 125 g/Ha,90
same,"Herbicidal activity, EPHHL",[4]; 250 g/Ha,100
same,"Herbicidal activity, EPHHL",[4]; 500 g/Ha,100
same,"Herbicidal activity, GLXMA",[4]; 15 g/Ha,20
same,"Herbicidal activity, GLXMA",[4]; 30 g/Ha,40
same,"Herbicidal activity, GLXMA",[4]; 60 g/Ha,70
same,"Herbicidal activity, GLXMA",[4]; 125 g/Ha,70
same,"Herbicidal activity, GLXMA",[4]; 250 g/Ha,90
same,"Herbicidal activity, GLXMA",[4]; 500 g/Ha,90
same,"Herbicidal activity, IPOHE",[4]; 15 g/Ha,70
same,"Herbicidal activity, IPOHE",[4]; 30 g/Ha,90
same,"Herbicidal activity, IPOHE",[4]; 60 g/Ha,90
same,"Herbicidal activity, IPOHE",[4]; 125 g/Ha,100
same,"Herbicidal activity, IPOHE",[4]; 250 g/Ha,100
same,"Herbicidal activity, IPOHE",[4]; 500 g/Ha,100
same,"Herbicidal activity, ORYSA",[4]; 15 g/Ha,0
same,"Herbicidal activity, ORYSA",[4]; 30 g/Ha,0
same,"Herbicidal activity, ORYSA",[4]; 60 g/Ha,0
same,"Herbicidal activity, ORYSA",[4]; 125 g/Ha,10
same,"Herbicidal activity, ORYSA",[4]; 250 g/Ha,20
same,"Herbicidal activity, ORYSA",[4]; 500 g/Ha,40
same,"Herbicidal activity, PANMI",[4]; 15 g/Ha,0
same,"Herbicidal activity, PANMI",[4]; 30 g/Ha,50
same,"Herbicidal activity, PANMI",[4]; 60 g/Ha,60
same,"Herbicidal activity, PANMI",[4]; 125 g/Ha,80
same,"Herbicidal activity, PANMI",[4]; 250 g/Ha,100
same,"Herbicidal activity, PANMI",[4]; 500 g/Ha,100
same,"Herbicidal activity, SETFA",[4]; 15 g/Ha,0
same,"Herbicidal activity, SETFA",[4]; 30 g/Ha,70
same,"Herbicidal activity, SETFA",[4]; 60 g/Ha,70
same,"Herbicidal activity, SETFA",[4]; 125 g/Ha,80
same,"Herbicidal activity, SETFA",[4]; 250 g/Ha,90
same,"Herbicidal activity, SETFA",[4]; 500 g/Ha,90
same,"Herbicidal activity, SIDSP",[4]; 15 g/Ha,40
same,"Herbicidal activity, SIDSP",[4]; 30 g/Ha,80
same,"Herbicidal activity, SIDSP",[4]; 60 g/Ha,80
same,"Herbicidal activity, SIDSP",[4]; 125 g/Ha,90
same,"Herbicidal activity, SIDSP",[4]; 250 g/Ha,90
same,"Herbicidal activity, SIDSP",[4]; 500 g/Ha,100
same,"Herbicidal activity, SORVU",[4]; 15 g/Ha,0
same,"Herbicidal activity, SORVU",[4]; 30 g/Ha,20
same,"Herbicidal activity, SORVU",[4]; 60 g/Ha,60
same,"Herbicidal activity, SORVU",[4]; 125 g/Ha,80
same,"Herbicidal activity, SORVU",[4]; 250 g/Ha,90
same,"Herbicidal activity, SORVU",[4]; 500 g/Ha,100
same,"Herbicidal activity, XANST",[4]; 60 g/Ha,90
same,"Herbicidal activity, XANST",[4]; 250 g/Ha,100
same,"Herbicidal activity, XANST",[4]; 500 g/Ha,100
same,"Herbicidal activity, ZEAMX",[4]; 15 g/Ha,0
same,"Herbicidal activity, ZEAMX",[4]; 30 g/Ha,20
same,"Herbicidal activity, ZEAMX",[4]; 60 g/Ha,20
same,"Herbicidal activity, ZEAMX",[4]; 125 g/Ha,20
same,"Herbicidal activity, ZEAMX",[4]; 250 g/Ha,30
same,"Herbicidal activity, ZEAMX",[4]; 500 g/Ha,70
